Laboratory results from publication PMC12503906, “Novel Pyrazolo [1,5‐a]−1,3,5‐Triazine Derivatives as CDK7 Inhibitors: Synthesis and Biological Insights in Pancreatic Ductal Adenocarcinoma Models” (Chemmedchem, 2025).
Read-outs that look alike come from different tables or passages of the source.

Legend:
PANC‐1 = assay: SRB chemosensitivity assay, PANC‐1 cells; assay type: cell-based; settings: Homo sapiens, read-out: IC50 PANC‐1
Experimental: (§1) Three lines of immortalized PDAC cells were selected as representative phenotypes: mesenchymal (PATU‐T), quasimesenchymal (PANC‐1), and an epithelial clone of SUIT 2 cells (SUIT 2.28). Cells were cultured in noncoated T‐75 and T‐25 flasks under adherent conditions, using 1× DMEM (Gibco, 41,966,029) for PATU‐T and RPMI (Gibco, 21,875,034) for SUIT 2.28 and PANC‐1, both supplemented with 10% NBCS and 1% P/S. Additional employed models were the PDAC3 cells, a primary cell culture, the PSCs, which were immortalized healthy pancreatic cells, and the PATU‐T‐GR, which was a gemcitabine resistant model of PATU‐T. PDAC3 and PSCs were cultivated using complete RPMI medium, while PATU‐T‐GR required complete DMEM medium. For seeding, cells were detached with Trypsin‐EDTA (0.05%) (GibcoTM, 25,300–096) and were consequently counted using the Automated Cell Counter (Luna‐II, Westburg). Cells were then plated on 96‐ or 6‐well plates depending on the planned experiment.
(§2) The Sulforhodamine B (SRB) chemosensitivity assay was used to measure cytotoxicity and cell proliferation post drug treatment. At day 0, 3–6 × 10^3 cells were seeded in a 96‐well plate, depending on the cell line. At day 1, cells were attached and ready to be treated. For the calculation of the IC50, drug dilutions for the compounds 1b, 1c, 1d, 1e, 1g, 1hr, 1i, 1j, and LDC4297 (MedChemExpress, HY‐12,653) were prepared in dilution trays and eight different concentrations were included. These were added in triplicates to the cells, which were then incubated for […] at 37 °C in 5% CO2. During day 1, the control plate was fixed with 50% Trichloroacetic acid (TCA), as intended to be the baseline plate used for the normalization of the data. 72 h post‐treatment, the cells were fixed with TCA, and placed at 4 °C for about 2 h. The plates were then washed with distillated water and left to dry under the hood with ventilation. Subsequently, plates were stained with 0.4% SRB for 15 min and washed with 1% acetic acid to remove excess stain. Once dried again, the protein‐bound SRB was dissolved in 10 mM TRIS, and the plates were placed on a shaker for 10 min per plate. Lastly, the absorbance was measured at 492 nm with a spectrophotometer (Synergy HT, BioTek). The absorbance data obtained were normalized to the day 1 control, and the percentage of cell growth in relation to the control was calculated using the following formula. (1) %Cell growth=Mean OD treatment−Mean OD day0/Mean OD control−Mean OD day0×100
(§3) The percentage of proliferation and their respective standard deviations were used to perform statistical analysis in GraphPad Prism software v 10 (GraphPad Software, San Diego, CA). Data were normalized to the day 0 control and to their own untreated 72 h control. These were transformed into logarithmic data, and log(inhibitor) versus response analysis was performed for obtaining the IC50 values per cell lines. Each experiment was conducted in triplicates.

PATU‐T [1] = assay: SRB chemosensitivity assay, PATU‐T cells; assay type: cell-based; settings: read-out: IC50 PATU‐T
Experimental: as §1, §2, §3

SUIT 2.28 = assay: SRB chemosensitivity assay, SUIT 2.28 cells; assay type: cell-based; settings: read-out: IC50 SUIT 2.28
Experimental: as §1, §2, §3

PATU‐T [2] = assay: Wound healing assay, PATU‐T; assay type: cell-based; settings: 1 × IC50 and 4 × IC50, 4 to 24 h
Experimental: The wound healing assay was used to test the migratory ability of the selected cells post‐treatment. Cells (5 × 10^4 /well) were seeded on 96‐well. After 24 h, cells reached the optimal 100% confluency, and an artificial wound was created with a 96‐well Pintool Scratcher. The cells were immediately washed with complete medium, in order to remove cell debris after the scratch, and images of the wells were captured at time 0 h, right before the addition of the treatment. Each drug (1b and 1g) was previously diluted in the respective medium at two different concentrations: 1 × IC50 and 4 × IC50 (according to the cell specific IC50 value) and were then added to the cells. Images were then taken at timepoints 4, 8, 20, and 24 h using the Leica microscope with a JAI TMC‐137 camera to assess wound closure. The images were analyzed using the Universal Grab 6.3 software (DCILabs), and the obtained data were used to determine the percentage of migration of the cells, using the following formula. (2) % Migration=Mean width of the wound atT=0−Mean width of the wound atT=X/Mean width of the wound atT=0×100

CDK7 [3] = settings: selective inhibition of CDK7, quoted in introduction; cited from earlier work
PATU‐T GR = assay: SRB chemosensitivity assay, gemcitabine resistant PATU‐T GR cells; assay type: cell-based; settings: SRB, gemcitabine resistant PATU‐T GR, average ± SEM, triplicate; read-out: IC50 PATU‐GR
Experimental: as §1, §2
The percentage of proliferation and their respective standard deviations were used to perform statistical analysis in GraphPad Prism software v 10 (GraphPad Software, San Diego, CA). Data were normalized to the day 0 control and to their own untreated 72 h control. […]

PDAC3 = assay: SRB chemosensitivity assay, primary PDAC3 cells; assay type: cell-based; settings: PDAC-3, SRB, primary cell line, average ± SEM, triplicate; read-out: IC50 PDAC3
Experimental: as §1, §2, §3

PSC = assay: SRB chemosensitivity assay, pancreatic stellate cells (PSC); assay type: cell-based; settings: Fibroblast; SRB, nontumorous immortalized pancreatic fibroblasts, average ± SEM, triplicate; read-out: IC50 PSC
Experimental: as §1
as §2, with “The plates were then washed with distillated water and left to dry under the hood with ventilation. Subsequently, plates were stained with 0.4% SRB for 15 min and washed with 1% acetic acid to remove excess stain. Once dried again, the protein‐bound SRB was dissolved in 10 mM TRIS, and the plates were placed on a shaker for 10 min per plate.” left out, “(1) %Cell growth=Mean OD treatment−Mean OD day0/Mean OD control−Mean OD day0×100” left out

[4] = target: T1, phosphorylated CDK7 (p‐CDK7) (Homo sapiens, UniProt P50613); assay: Phospho‐CDK7 (Thr170) cell‐based ELISA, SUIT 2.28; set-up: two PDAC preclinical models (SUIT 2.28 and PDAC3); endogenous in cells; host or cells: SUIT 2.28; settings: SUIT 2.28, 4 × IC50, ELISA
T1 sequence (P50613 2-346 limits assumed): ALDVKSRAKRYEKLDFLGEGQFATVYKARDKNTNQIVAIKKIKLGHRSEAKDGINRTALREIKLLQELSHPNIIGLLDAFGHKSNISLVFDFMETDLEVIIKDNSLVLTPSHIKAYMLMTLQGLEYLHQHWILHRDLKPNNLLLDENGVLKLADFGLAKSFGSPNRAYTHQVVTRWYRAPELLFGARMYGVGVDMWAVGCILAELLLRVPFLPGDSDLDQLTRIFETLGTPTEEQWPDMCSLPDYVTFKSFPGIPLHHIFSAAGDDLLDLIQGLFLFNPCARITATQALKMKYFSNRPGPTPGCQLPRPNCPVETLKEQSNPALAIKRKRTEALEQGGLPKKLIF
T1 sequence (P51946 whole entry partner): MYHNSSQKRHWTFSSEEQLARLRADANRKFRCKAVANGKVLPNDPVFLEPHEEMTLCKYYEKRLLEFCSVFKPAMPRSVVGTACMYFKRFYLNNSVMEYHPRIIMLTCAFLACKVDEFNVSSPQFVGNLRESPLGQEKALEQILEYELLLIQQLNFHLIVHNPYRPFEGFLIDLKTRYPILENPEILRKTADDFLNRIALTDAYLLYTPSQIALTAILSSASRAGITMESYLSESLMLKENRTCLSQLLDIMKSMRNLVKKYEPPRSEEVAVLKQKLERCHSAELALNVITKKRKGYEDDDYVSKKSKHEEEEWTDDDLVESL
T1 sequence (P51948 whole entry partner): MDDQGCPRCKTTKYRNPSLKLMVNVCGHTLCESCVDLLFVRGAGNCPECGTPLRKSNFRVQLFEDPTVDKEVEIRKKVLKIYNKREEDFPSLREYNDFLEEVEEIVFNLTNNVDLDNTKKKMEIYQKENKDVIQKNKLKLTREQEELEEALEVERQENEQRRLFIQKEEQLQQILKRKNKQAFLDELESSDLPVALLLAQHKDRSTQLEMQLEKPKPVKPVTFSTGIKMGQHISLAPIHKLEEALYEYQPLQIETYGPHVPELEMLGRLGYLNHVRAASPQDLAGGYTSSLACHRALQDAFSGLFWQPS
Experimental: (§4) To detect CDK7 and phospho‐CDK7 levels at Thr170 residue after treatment, an enzyme‐linked immunosorbent assay (Biomatik, Phospho‐CDK7 (Thr170) Colorimetric Cell‐Based ELISA Kit, Cat# EKA51274) was performed according to the manufacturer's protocols. […] The absorbance was read at 450 nm using a microplate reader.

PDAC cell lines = assay: SRB chemosensitivity assay, ranges over several PDAC cell lines; assay type: cell-based; settings: range across the different cell lines
Experimental: as §1, with “Cells were then plated on 96‐ or 6‐well plates depending on the planned experiment.” left out
The Sulforhodamine B (SRB) chemosensitivity assay was used to measure cytotoxicity and cell proliferation post drug treatment. […] At day 1, cells were attached and ready to be treated. […] Lastly, the absorbance was measured at 492 nm with a spectrophotometer (Synergy HT, BioTek). The absorbance data obtained were normalized to the day 1 control, and the percentage of cell growth in relation to the control was calculated using the following formula. […]

CDK7 [5] = target: CDK7 (Homo sapiens, UniProt P50613); assay: In vitro CDK7 enzyme inhibition assay (ADP‐Glo); assay type: biochemical; set-up: purchased Promega Corporation VA7402; settings: ADP‐Glo assay, mean of triplicate experiments; read-out: CDK7 inhibition activity IC50
CDK7 (Homo sapiens, UniProt P50613), sequence (P50613 whole entry): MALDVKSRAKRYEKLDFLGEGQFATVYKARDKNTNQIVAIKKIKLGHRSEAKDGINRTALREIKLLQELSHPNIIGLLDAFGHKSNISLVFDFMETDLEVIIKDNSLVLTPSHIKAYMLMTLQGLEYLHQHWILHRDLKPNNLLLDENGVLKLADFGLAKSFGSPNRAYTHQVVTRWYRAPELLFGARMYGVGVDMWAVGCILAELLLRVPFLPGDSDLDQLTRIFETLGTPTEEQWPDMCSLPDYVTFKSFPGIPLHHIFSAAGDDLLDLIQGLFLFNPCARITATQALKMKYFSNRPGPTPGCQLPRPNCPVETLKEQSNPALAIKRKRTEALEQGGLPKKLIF
CDK7 (Homo sapiens, UniProt P50613), sequence (P51946 whole entry partner): as the sequence (P51946 whole entry partner) above
CDK7 (Homo sapiens, UniProt P50613), sequence (P51948 whole entry partner): as the sequence (P51948 whole entry partner) above
Experimental: The CDK7 enzyme inhibition assay was conducted using the ADP‐Glo Kinase Assay (VA7402, Promega Corporation, Madison, WI, USA) according to the manufacturer's instructions. In this assay, CDK7 catalyzes the conversion of ATP to ADP. The reaction was terminated by adding the ADP‐Glo reagent, which depletes residual ATP. Subsequently, the kinase detection reagent was introduced to convert ADP back into ATP, which was then measured via a luciferase reaction, producing luminescence. The assay was carried out at room temperature, using DMSO as the solvent for the tested compounds. Each compound was tested at eight different concentrations. […] Luminescence was recorded using a BioTek plate reader (BioTek Instruments Inc.), as previously described.^[ [39] ^] The percentage of enzyme inhibition was determined for each compound at different concentrations, and mean IC50 values of triplicate experiments were calculated using GraphPad Prism.

[6] = target: T1, phosphorylated CDK7 (p‐CDK7); assay: Phospho‐CDK7 (Thr170) cell‐based ELISA, PDAC3; set-up: endogenous in cells; host or cells: PDAC3 primary cells; settings: PDAC3, 4 × IC50, ELISA
Experimental: as §4

[7] = PANC-1, SRB, 72 h of treatment, average ± SEM, triplicate
[8] = SRB, 72 h of treatment, average ± SEM, triplicate

SMILES	IC50 (PANC‐1; [7])	IC50 (PATU‐T [1]; [8])	IC50 (SUIT 2.28; [8])	IC50 (PANC‐1; PANC-1, 72 h)	IC50 (PATU‐T [1]; 72 h)	IC50 (SUIT 2.28; 72 h)	other results
Nc1ncnc2cc(-c3c[nH]c4ccc(Cl)cc34)nn12 [Compound 1c, 7‐(5‐Chloro‐1H‐indol‐3‐yl)pyrazolo[1,5‐a][1,3,5]triazin‐4‐amine]	8700 ± 1500 nM	1900 ± 600 nM	400 ± 100 nM	–	–	–	–
Nc1ncnc2cc(-c3c[nH]c4ccc(F)cc34)nn12 [Compound 1d, 7‐(5‐Fluoro‐1H‐indol‐3‐yl)pyrazolo[1,5‐a][1,3,5]triazin‐4‐amine]	9600 ± 800 nM	3500 ± 700 nM	600 ± 100 nM	–	–	–	–
COc1ccc2[nH]cc(-c3cc4ncnc(N)n4n3)c2c1 [Compound 1e, 7‐(5‐Methoxy‐1H‐indol‐3‐yl)pyrazolo[1,5‐a][1,3,5]triazin‐4‐amine]	8800 ± 1200 nM	4700 ± 900 nM	500 ± 100 nM	–	–	–	inhibition of cell migration (PATU‐T [2]): greatest inhibitory effect
Cn1cc(-c2cc3ncnc(N)n3n2)c2cc(Cl)ccc21 [Compound 1h, 7‐(5‐Chloro‐1‐methyl‐1H‐indol‐3‐yl)pyrazolo[1,5‐a][1,3,5]triazin‐4‐amine]	–	–	–	3100 ± 700 nM	2000 ± 300 nM	1600 ± 300 nM	–
Cn1cc(-c2cc3ncnc(N)n3n2)c2cc(F)ccc21 [Compound 1i, 7‐(5‐Fluoro‐1‐methyl‐1H‐indol‐3‐yl)pyrazolo[1,5‐a][1,3,5]triazin‐4‐amine]	–	–	–	2200 ± 400 nM	5500 ± 1100 nM	500 ± 100 nM	–
COc1ccc2c(c1)c(-c1cc3ncnc(N)n3n1)cn2C [Compound 1j, 7‐(5‐Methoxy‐1‐methyl‐1H‐indol‐3‐yl)pyrazolo[1,5‐a][1,3,5]triazin‐4‐amine]	–	–	–	2400 ± 500 nM	4700 ± 800 nM	500 ± 100 nM	–
CC(C)c1ccccc1CNc1nc(OC2CCN(C)CC2)nc2c(C(C)C)cnn12 [LDC3140]	–	–	–	–	–	–	IC50 (CDK7 [3]): < 5 nM
CC(C)c1cnn2c(NCc3ccccc3-n3cccn3)nc(OC3CCCNC3)nc12 (stereo not shown) [LDC4297, reference compound]	20 ± 10 nM	30 ± 10 nM	30 ± 10 nM	–	–	–	IC50 (PATU‐T GR): 450 ± 90 nM; IC50 (PDAC3): 100 ± 20 nM; IC50 (PSC): 110 ± 20 nM; p‐CDK7 expression vs untreated [4]: significant decrease in p‐CDK7 levels; IC50 (PDAC cell lines): 20 to 400 nM; IC50 (CDK7 [5]): 7.5 nM; p‐CDK7 expression vs untreated [6]: significant decrease in p‐CDK7 levels; IC50 (CDK7 [3]): < 5 nM
